Test results: US6316014A, “Microcide composition” (Centro de Bioactivos Quimicos (CBQ), priority 1996, dated 2001)
Blank lines part the entries; values can stand above or below the compound they belong to.

Tests used:
[1] = test system: contamination of culture media; conditions: plants cultivated in vitro; cited from earlier work
[2] = Thermal stability of active principle; format: physicochemical
[3] = test system: bacteria and fungi; conditions: EP-A 0 678 516; cited from earlier work
[4] = Water solubility and dissolution of active principle; format: physicochemical
[5] = test system: Musa sp.; assay: Development of "in vitro" plants of Musa sp., multiplication phase (scaleup); conditions: scaleups, standard method 1%
Experimental: An effective washout of the flasks and lids to be used in the production of in vitro plants was conducted using detergent, rinsing them with sufficient water and to then submerging the bottles in a sodium hypochlorite solution at 0.5% for a time interval never smaller than 3 minutes. Afterwards, the flasks are placed upside down and they should be used totally dry before 24 hours.
Once the culture medium is prepared and reaches a temperature of approximately 60-80° C. it is added the necessary weight of the formulation to obtain a concentration of 35 μg/ml and, then the volume required is poured into each of the flasks proceeding to the planting procedure after 24 hours.
Two scaleup studies were conducted on a Musa sp. culture in the multiplication phase. The death rate percentage during the three assays was 0.81% for the scaleups conducted adding the active principle and 1% for the standard method.
Two scaleup studies were conducted on a Musa sp. culture in the multiplication phase.

SMILES: CN[C@@H]1[C@H](O[C@H]2[C@H](O[C@H]3[C@H](O)[C@@H](O)[C@H](NC(=N)N)[C@@H](O)[C@@H]3NC(=N)N)O[C@@H](C)[C@]2(O)CO)O[C@@H](CO)[C@H](O)[C@H]1O [Dihydrostreptomycin]
- Prevention of contamination [1]: without satisfactory results

SMILES: CO/N=C(\C(=O)N[C@@H]1C(=O)N2C(C(=O)O)=C(COC(C)=O)CS[C@H]12)c1csc(N)n1 [Cefotaxim]
- Prevention of contamination [1]: without satisfactory results

- Thermally stable up to [2]: up to 110 °C
- Dissolution rate in an aqueous medium ([4]; aqueous medium): reduced dissolution rate
- Water solubility ([4]; water): close-to-null water solubility
SMILES: O=[N+]([O-])C(Br)=Cc1ccc(Br)o1 [1-(5-bromophur-2-yl)-2-bromo-2-nitroethene]
- Antibacterial and antifungal activities [3]: powerful agent with antibacterial and antifungal activities
- Death rate percentage [5]: 0.81%

SMILES: CO[C@@H]1[C@@H](OC(N)=O)[C@@H](O)[C@H](Oc2ccc3c(O)c(NC(=O)c4ccc(O)c(CC=C(C)C)c4)c(=O)oc3c2C)OC1(C)C [Novobiocin]
- Prevention of contamination [1]: without satisfactory results
